Data as given in patent publication US10195222B2, “Acyclic nucleoside phosphonate diesters” (The Regents of the University of California, priority 2013, dated 2019).
Where two headings read alike, the source gives them in different places.

Assays:
HSV-2 = HSV-2 plaque reduction assay in HFF cells; format: cell-based; conditions: for Selectivity index: HSV-2 in HFF cells; for EC50: plaque reduction, 3 days, read-out: EC50 (HSV-2 antiviral activity in HFF cells)
Experimental: Antiviral assay. […] Plates were allowed to incubate for 37° C. for 1 hour. […] Plates were incubated at 37° C. for 3 days and monolayers were stained with crystal violet. Plaques were counted and results are expressed as μM concentration of drug which reduced plaques by 50% versus control plates without drug. (Richards et al, Antiviral Res. 2:27, 1982)

[1] = Cytotoxicity (reduction of cell proliferation) in HEK 293 cells; format: cell-based; conditions: human, read-out: CC50 (50% reduction of cell proliferation)
Text: (§1) Assay. DNA PCR in HEK 293 cells infected with HPV-11, EC50, effective concentration 50%; CC50, 50% reduction of cell proliferation. DNA PCR by the methods reported by Chiang et al, Proc Natl Acad Sci USA. 1992. 89(13):5799-803 and Taylor and Morgan, Virology. 2003. 10; 315(1):103-9.

HPV-11 = HPV-11 antiviral assay, DNA PCR in HEK 293 cells; format: cell-based; conditions: for Selectivity index: HPV-11 in HEK 293 cells
Text: as §1

[2] = test system: Caski (16) cervical cancer cells; assay: Cell proliferation assay (neutral red), Caski cervical cancer cells; format: cell-based; conditions: Homo sapiens, Ca-Ski, 120 h, read-out: Cytotoxicity, CC50, Cervical Cancer Cells Caski (16)
Experimental: (§2) Method Cell Proliferation Assays: The various human fibroblast and human cervical cancer cell lines were plated at 5×10^3 per well in 96 well plates using media with 10% fetal bovine serum added and incubated for about 24 hr. Ten mM stock solutions of the compounds were prepared in 10% DMSO in distilled water. Serial drug dilutions were made in media containing 2% FBS to give a final […] concentration, added to the wells, and incubated at 37° C. for 5 days. Cytotoxicity was measured by neutral red reduction, as known in the art.

[3] = test system: Me180 (68) cervical cancer cells; assay: Cell proliferation assay (neutral red), Me180 cervical cancer cells; format: cell-based; conditions: Homo sapiens, ME-180, 120 h, read-out: Cytotoxicity, CC50, Cervical Cancer Cells Me180 (68)
Experimental: as §2

[4] = test system: HeLa (18) cervical cancer cells; assay: Cell proliferation assay (neutral red), HeLa cervical cancer cells; format: cell-based; conditions: Homo sapiens, 120 h, read-out: Cytotoxicity, CC50, Cervical Cancer Cells HeLa (18)
Experimental: as §2

[5] = Cell proliferation assay (neutral red), normal human fibroblasts; format: cell-based; conditions: read-out: Cytotoxicity, CC50, Normal cells Human fibroblasts
Experimental: as §2

HIV-1LAI = assay: HIV antiviral assay, p24 reduction in MT-2 cells; conditions: for Selectivity index: CC50/EC50, HIV-1 in MT-2 cells
[6] = Cytotoxicity in HFF cells (HSV-2 table); conditions: human, HFF cells
HFF cells = assay: Cytotoxicity in HFF cells (HSV-2 table); conditions: read-out: CC50 (HFF cells); Table 10
[7] = test system: MT-2 cells (human T cell leukemia); assay: Cytotoxicity in MT-2 cells (flow cytometry, propidium iodide); format: cell-based; conditions: 72 hrs
Experimental: (§3) Method of cytotoxicity determination. MT-2 cells were incubated with drug for 72 hrs and harvested. Flow count beads (Beckman Coulter, Miami, Fla.) were added to the cell suspension followed by propidium iodide staining and analysis using flow cytometer and the 50% cytotoxic concentration (CC50) was calculated from the cell counts and viability.
as §3, with “Method” for “Method of”

[8] = Human alphaherpesvirus 2, HFF, 72 h

Compound | Selectivity index (HSV-2) | EC50 (HSV-2; [8]) | CC50 [1] | Selectivity index (HPV-11) | Selectivity index (HIV-1LAI) | CC50 [6] | other results
CCCCCCCCCCCCCCCCCCOCCOP(=O)(COCCn1cnc2c(=O)[nH]c(N)nc21)OCc1ccccc1 (racemic) [Bn-ODE-PMEG, benzyl octadecyloxyethyl 9-[2-(phosphonomethoxy)ethyl]guanine] | >10 | < 1000 nM | > 100000 nM | >151 | – | – | EC50 (HPV-11; HEK293, DNA PCR in HEK 293 cells infected with HPV-11): 660 nM; CC50 [2]: 15 ± 7 nM; CC50 [3]: 31 ± 20 nM; CC50 [4]: 310 ± 110 nM; CC50 at 5 days [5]: 15000 ± 1500 nM
CCCCCCCCCCCCCCCCCCOCCOP(=O)(CO[C@H](CO)Cn1cnc2c(N)ncnc21)OCc1ccccc1 (stereo partly drawn) [Bn-ODE-(S)-HPMPA, benzyl octadecyloxyethyl 9-(S)-[3-hydroxy-2-(phosphonomethoxy)propyl]adenine] | >52 | < 100 nM | – | >370 | 17.7 | 5200 nM | CC50 ([3]; 5 days, neutral red): 210 ± 70 nM; CC50 at 5 days ([5]; normal human fibroblasts (HFF)): 5200 ± 3900 nM
CCCCCCCCCCCCCCCCCCOCCOP(=O)(CO[C@H](CO)Cn1ccc(N)nc1=O)OCc1ccccc1 (stereo partly drawn) [Bn-ODE-(S)-HPMPC, benzyl octadecyloxyethyl 1-(S)-[(3-hydroxy-2-phosphonomethoxy)propyl]cytosine] | >48 | < 100 nM | – | – | 6.7 | 4800 nM | –
CCCCCCCCCCCCCCCCCCOCCOP(=O)(COCCn1cnc2c(N)ncnc21)OCc1ccccc1 (centres unmarked) [Bn-ODE-PMEA, benzyl octadecyloxyethyl 9-[2-(phosphonomethoxy)ethyl]adenine] | – | – | > 100000 nM | – | – | – | –
CCCCCCCCCCCCCCCCCCOCCOP(=O)(COCCn1cnc2c(=O)[nH]c(N)nc21)OCc1ccccc1 (centres unmarked) [Bn-ODE-PMEG fast, benzyl octadecyloxyethyl 9-(2-phosphonomethoxyethyl)guanine] | – | – | – | – | – | – | EC50 (HSV-2): < 100 nM; CC50 (HFF cells): > 4000 nM
CCCCCCCCCCCCCCCCCCOCCOP(=O)(COCCn1cnc2c(=O)[nH]c(N)nc21)OCc1ccccc1 (centres unmarked) [Bn-ODE-PMEG slow, benzyl octadecyloxyethyl 9-(2-phosphonomethoxyethyl)guanine] | – | – | – | – | – | – | EC50 (HIV-1LAI; read-out: EC50 (HIV antiviral activity in MT-2 cells), p24 reduction, four days after infection): < 0.01 nM; CC50 ([7]; Table 7, read-out: CC50, 50% Cytotoxic concentration, MT2 cells T cell leukemia): < 10 nM; CC50 ([7]; Table 8, read-out: CC50 (MT-2 cells)): < 10 nM
